Experimental data published in US11633377B2, “Treatment of circadian rhythm disorders” (Vanda Pharmaceuticals Inc., priority 2012, dated 2023).
Read-outs that look alike come from different tables or passages of the source.

How the values were obtained:
[1] = Effect of fluvoxamine co-administration on tasimelteon pharmacokinetics; assay type: in vivo, human; settings: for AUC: both sexes, human, in vivo
Description: Twenty-four healthy male or female subjects between the ages of 18 and 55 years of age (inclusive) who were non-smokers with a body mass index (BMI) of 18 and 35 kg/m2 participated in this open-label, single-sequence study conducted at one site. On day 1, subjects were administered 5.667 mg of tasimelteon.

[2] = Effect of smoking on concentration of tasimelteon and metabolites; assay type: in vivo, human
Excerpt: Smokers were defined as those smoking 10 or more cigarettes per day. Non-smokers were defined as those smoking no cigarettes per day.

[3] = target: T1, Mel1b (MT2R) (Homo sapiens, UniProt P49286); assay: Affinity (Ki) for melatonin receptor MT2R; assay type: binding; settings: MT2R vs MT1R
T1 sequence (P49286 1-362): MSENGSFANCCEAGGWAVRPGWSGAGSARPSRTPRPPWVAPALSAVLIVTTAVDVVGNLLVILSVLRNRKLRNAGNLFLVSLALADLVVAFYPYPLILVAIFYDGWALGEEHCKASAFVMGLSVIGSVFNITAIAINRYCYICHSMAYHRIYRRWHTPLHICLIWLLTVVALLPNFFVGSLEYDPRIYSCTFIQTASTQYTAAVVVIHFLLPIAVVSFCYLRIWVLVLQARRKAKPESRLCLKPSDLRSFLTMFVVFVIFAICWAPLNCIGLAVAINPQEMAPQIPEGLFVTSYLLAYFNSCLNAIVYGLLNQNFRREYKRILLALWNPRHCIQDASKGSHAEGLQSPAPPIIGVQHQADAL

[4] = Solubility and pH of saturated solution; assay type: physicochemical
[5] = tested on: patients with Non-24; assay: SET Study: Phase III randomized, double-masked, placebo-controlled study in Non-24; assay type: in vivo, human
Description: Specifically, patients were orally administered 20 mg tasimelteon per day for at least 12 weeks prior to re-estimating tau. Patients were selected for randomization or open label based on baseline tau estimates. Drug was administered at about 1 hour prior to target sleep time, as determined by patients based on a 9 hour nighttime sleep period.
The SET study was an 84 patient randomized, double-masked, placebo-controlled study in patients with Non-24. The primary endpoints for this study were Entrainment of the melatonin (aMT6s) rhythm to the 24-hour clock and Clinical Response as measured by Entrainment plus a score of greater than or equal to 3 on the following N24CRS:
The SET study also assessed a number of secondary endpoints including Entrainment of cortisol rhythm and a broad range of clinical sleep and wake parameters. These parameters included improvement in the total nighttime sleep in the worst 25% of nights (LQ-nTST), decrease in the total daytime sleep duration in the worst 25% of days (UQ-dTSD) and midpoint of sleep timing (MoST) which is derived from a combination of the sleep reported for both nighttime and daytime. CGI-C is a seven-point rating scale of global functioning with lower scores indicating larger improvements.

[6] = tested on: blind individuals with Non-24; assay: RESET Study: randomized withdrawal study, maintenance of effect in Non-24; assay type: in vivo, human
Description: Patients were treated with tasimelteon for at least twelve weeks during an open-label run-in phase during the SET Study. Patients who responded to tasimelteon treatment during the run-in phase were then randomized to receive either placebo or tasimelteon (20 mg/day) for 2 months.
The primary endpoint of the RESET Study was the maintenance of effect as measured by entrainment of the melatonin (aMT6s) rhythm.
The RESET study also assessed a number of secondary endpoints including maintenance of entrainment of the cortisol rhythm and a range of sleep and wake parameters including LQ-nTST (total nighttime sleep in the worst 25% of nights), UQ-dTSD (total daytime sleep duration in the worst 25% of days) and MoST (midpoint of sleep timing from both nighttime and daytime sleep).

[7] = tested on: Non-24 patients; assay: Entrainment by baseline peak aMT6s and beta blocker status (clinical studies); assay type: in vivo, human
Description: Results of clinicalstudy also show a strong correlation between endogenous melatonin and efficacy of tasimelteon in entraining patients to a 24 hour circadian rhythm. The following table (Table 3A) compares the peak aMT6s levels in the 24 entrained and 23 non-entrained patients.
Data from these studies currently available also indicate that beta blocker therapy is […] related to efficacy of tasimelteon, i.e., patients receiving beta blocker therapy were less likely to become entrained than patients who were not.

[8] = tmax after administration; assay type: in vivo, human; settings: tasimelteon
[9] = Day 8 (with fluvoxamine) vs Day 1
[10] = Day 1: 5.667 mg tasimelteon alone
[11] = fluvoxamine + tasimelteon vs tasimelteon alone
[12] = Day 8: 5.667 mg tasimelteon + 50 mg fluvoxamine

SMILES: CCC(=O)NC[C@@H]1C[C@H]1c1cccc(O)c1CCO [M11]
- Geometric Mean Ratio, AUC [1, 9]: 126.03%
- Geometric Mean Ratio, Cmax [1, 9]: 68.71%
- Geometric Mean Ratio, t1/2 [1, 9]: 248.35%
- AUC [1, 10]: 44.5 ± 17.2 ng·h/mL
- Geometric Mean Ratio, AUC (inf) ([2]; Smokers vs Non-Smokers): 81.84%
- Geometric Mean Ratio, Cmax ([2]; Smokers vs Non-Smokers): 84.50%
- Geometric Mean Ratio, t1/2 ([2]; Smokers vs Non-Smokers): 94.13%

SMILES: CCC(=O)NC[C@@H]1C[C@H]1c1cccc2c1CCO2 (relative stereo) [Tasimelteon, trans-N-[[2-(2,3-dihydrobenzofuran-4-yl)cycloprop-1yl]methyl]propanamide]
- greater affinity for MT2R relative to MT1R [3]: 2-4 times
- native pH of a saturated solution in water [4]: 8.5
- Clinical Response 2 (Entrainment + N24CRS >=2) ([5]; 20 mg/day oral): 28.9%
- Entrainment (aMT6s) ([5]; 20 mg/day oral): 20.0%
- LQ-nTST (LS mean minutes) ([5]; LS mean): 57.0 min
- CGI-C (LS mean minutes) ([5]; LS mean, smaller numbers indicate improvement): 2.6 min
- LQ-nTST and UQ-dTSD >=90 mm ([5]; only subjects with significant sleep and nap problems at baseline): 23.8%
- time to relapse analysis ([6]; 45 min decrement of weekly average nighttime sleep, P=0.0907): placebo treated patients relapsed in higher numbers and at an earlier time than tasimelteon treated patients
- Maintenance of entrainment (aMT6s) ([6]; RESET, 20 mg/day): 90.0%
- maintenance of entrainment (cortisol) ([6]; RESET, 20 mg/day): 80.0%
- MoST (LS mean minutes), Difference ([6]; RESET, tasimelteon vs placebo): 36.0 min
- maintenance of entrainment (cortisol), Difference ([6]; RESET, tasimelteon vs placebo): 60.0%
- Entrained, number of patients [7]: 13
- Non-entrained, number of patients [7]: 21
- Entrained, % of patients ([7]; Peak aMT6s <1500 ng/hr): 41%
- Entrained, number of patients ([7]; Peak aMT6s <1500 ng/hr): 12
- Non-entrained, % of patients ([7]; Peak aMT6s <1500 ng/hr): 59%
- Non-entrained, number of patients ([7]; Peak aMT6s <1500 ng/hr): 17
- Entrained, % of patients ([7]; Peak aMT6s <12000 ng/hr): 38%
- Non-entrained, % of patients ([7]; Peak aMT6s <12000 ng/hr): 62%
- Entrained, % of patients ([7]; Peak aMT6s >1500 ng/hr): 67%
- Entrained, number of patients ([7]; Peak aMT6s >1500 ng/hr): 12
- Non-entrained, % of patients ([7]; Peak aMT6s >1500 ng/hr): 33%
- Non-entrained, number of patients ([7]; Peak aMT6s >1500 ng/hr): 6
- Entrained, % of patients ([7]; Peak aMT6s >2000 ng/hr): 85%
- Entrained, number of patients ([7]; Peak aMT6s >2000 ng/hr): 11
- Non-entrained, % of patients ([7]; Peak aMT6s >2000 ng/hr): 15%
- Non-entrained, number of patients ([7]; Peak aMT6s >2000 ng/hr): 2
- Entrained, % of patients ([7]; Peak aMT6s All): 51%
- Entrained, number of patients ([7]; Peak aMT6s All): 24
- Non-entrained, % of patients ([7]; Peak aMT6s All): 49%
- Non-entrained, number of patients ([7]; Peak aMT6s All): 23
- Entrained, number of patients ([7]; Taking Beta Blocker: No): 24
- Non-entrained, number of patients ([7]; Taking Beta Blocker: No): 19
- Entrained, number of patients ([7]; Taking Beta Blocker: Yes): 0
- Non-entrained, number of patients ([7]; Taking Beta Blocker: Yes): 4
- Geometric Mean Ratio, AUC [1, 9]: 653.36%
- Geometric Mean Ratio, CL/F [1, 9]: 15.31%
- Geometric Mean Ratio, Cmax [1, 9]: 232.74%
- Geometric Mean Ratio, t1/2 [1, 9]: 211.82%
- AUC [1, 10]: 102 ± 61.5 ng·h/mL
- AUC)-inf increase upon co-administration of fluvoxamine [1, 11]: approximately 7 fold
- Cmax increase upon co-administration of fluvoxamine [1, 11]: approximately 2 fold
- CL/F ([2]; Non-Smokers): 1,482 ± 1,008 mL/mm
- CL/F ([2]; Smokers): 2,290 ± 1,232 mL/mm
- Geometric Mean Ratio, AUC (inf) ([2]; Smokers vs Non-Smokers): 60.14%
- Geometric Mean Ratio, CL/F ([2]; Smokers vs Non-Smokers): 166.27%
- Geometric Mean Ratio, Cmax ([2]; Smokers vs Non-Smokers): 63.98%
- Geometric Mean Ratio, Vz/F ([2]; Smokers vs Non-Smokers): 144.39%
- Geometric Mean Ratio, t1/2 ([2]; Smokers vs Non-Smokers): 86.84%
- tmax [8]: approximately one-half

SMILES: CCC(=O)NCC1CC1c1cccc2c1CC(O)O2 (centres unmarked) [M13]
- AUC (ml) [1, 10]: 106 ± 32.6 ng·h/mL
- Geometric Mean Ratio, AUC [1, 9]: 125.05%
- Geometric Mean Ratio, Cmax [1, 9]: 69.31%
- Geometric Mean Ratio, t1/2 [1, 9]: 349.81%
- AUC (ml) [1, 12]: 133 ± 32.9 ng·h/mL
- Geometric Mean Ratio, AUC (inf) ([2]; Smokers vs Non-Smokers): 97.31%
- Geometric Mean Ratio, Cmax ([2]; Smokers vs Non-Smokers): 99.49%
- Geometric Mean Ratio, t1/2 ([2]; Smokers vs Non-Smokers): 77.51%

SMILES: CCC(=O)NCC1CC1c1cccc2c1C(O)CO2 (centres unmarked) [M12]
- AUC (ml) [1, 10]: 189 ± 90.8 ng·h/mL
- Geometric Mean Ratio, AUC [1, 9]: 274.81%
- Geometric Mean Ratio, Cmax [1, 9]: 92.74%
- Geometric Mean Ratio, t1/2 [1, 9]: 241.02%
- AUC (ml) [1, 12]: 435 ± 109.3 ng·h/mL
- Geometric Mean Ratio, AUC (inf) ([2]; Smokers vs Non-Smokers): 84.87%
- Geometric Mean Ratio, Cmax ([2]; Smokers vs Non-Smokers): 115.53%
- Geometric Mean Ratio, t1/2 ([2]; Smokers vs Non-Smokers): 73.31%

SMILES: CCC(=O)NC[C@@H]1C[C@H]1c1cccc(O)c1CC(=O)O [M9]
- Geometric Mean Ratio, AUC [1, 9]: 122.56%
- Geometric Mean Ratio, Cmax [1, 9]: 64.94%
- Geometric Mean Ratio, t1/2 [1, 9]: 328.02%
- AUC [1, 10]: 104 ± 30 ng·h/mL
- Geometric Mean Ratio, AUC (inf) ([2]; Smokers vs Non-Smokers): 74.36%
- Geometric Mean Ratio, Cmax ([2]; Smokers vs Non-Smokers): 77.18%
- Geometric Mean Ratio, t1/2 ([2]; Smokers vs Non-Smokers): 85.40%

SMILES: CCC(=O)NCC1CC1c1cccc2c1C(O)CO2 (centres unmarked) [M14]
- AUC (ml) [1, 10]: 4.54 ± 2.39 ng·h/mL
- Geometric Mean Ratio, AUC [1, 9]: 944.73%
- Geometric Mean Ratio, Cmax [1, 9]: 264.58%
- Geometric Mean Ratio, t1/2 [1, 9]: 243.34%
- AUC (ml) [1, 12]: 42.6 ± 27.3 ng·h/mL
- Geometric Mean Ratio, AUC (inf) ([2]; Smokers vs Non-Smokers): 42.98%
- Geometric Mean Ratio, Cmax ([2]; Smokers vs Non-Smokers): 60.17%
- Geometric Mean Ratio, t1/2 ([2]; Smokers vs Non-Smokers): 65.09%
